Experimental data published in PubChem BioAssay AID2060896 (Molecular Pharmacology Branch, DTP, NCI, 2025).

Test system: 941728-121-R-J1-PDC complex spheroid viability
Test: Anticancer human tumor 941728-121-R-J1-PDC patient-derived lung adenocarcinoma cell line growth inhibition [RAS]
Conditions: for IC50: curve of first compound; for viability, T/C: stronger effect = lower value
Procedure, shortened: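 Tumour cells grown as complex spheroids with HUVEC endothelial cells and mesenchymal stem cells, treated with RAS pathway inhibitor combinations. Each agent spans half-log steps from near clinical Cmax, or 10 microM where Cmax is unknown.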

[1] = second compound 0.0316 µM, first compound 0.00316 µM
[2] = second compound 0.0316 µM, first compound 0.01 µM
[3] = second compound 0.0316 µM, first compound 0.0316 µM
[4] = second compound 0.0316 µM, first compound 0.1 µM
[5] = second compound 0.0316 µM, first compound 0.316 µM
[6] = second compound 0.0316 µM, first compound 1 µM
[7] = second compound 0.1 µM, first compound 0.00316 µM
[8] = second compound 0.1 µM, first compound 0.01 µM
[9] = second compound 0.1 µM, first compound 0.0316 µM
[10] = second compound 0.1 µM, first compound 0.1 µM
[11] = second compound 0.1 µM, first compound 0.316 µM
[12] = second compound 0.1 µM, first compound 1 µM
[13] = second compound 0.316 µM, first compound 0.00316 µM
[14] = second compound 0.316 µM, first compound 0.01 µM
[15] = second compound 0.316 µM, first compound 0.0316 µM
[16] = second compound 0.316 µM, first compound 0.1 µM
[17] = second compound 0.316 µM, first compound 0.316 µM
[18] = second compound 0.316 µM, first compound 1 µM
[19] = second compound 1 µM, first compound 0.00316 µM
[20] = second compound 1 µM, first compound 0.01 µM
[21] = second compound 1 µM, first compound 0.0316 µM
[22] = second compound 1 µM, first compound 0.1 µM
[23] = second compound 1 µM, first compound 0.316 µM
[24] = second compound 1 µM, first compound 1 µM
[25] = second compound 3.16 µM, first compound 0.00316 µM
[26] = second compound 3.16 µM, first compound 0.01 µM
[27] = second compound 3.16 µM, first compound 0.0316 µM
[28] = second compound 3.16 µM, first compound 0.1 µM
[29] = second compound 3.16 µM, first compound 0.316 µM
[30] = second compound 3.16 µM, first compound 1 µM
[31] = second compound 10 µM, first compound 0.00316 µM
[32] = second compound 10 µM, first compound 0.01 µM
[33] = second compound 10 µM, first compound 0.0316 µM
[34] = second compound 10 µM, first compound 0.1 µM
[35] = second compound 10 µM, first compound 0.316 µM
[36] = second compound 10 µM, first compound 1 µM
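Note: spheroids exposed to compounds for 7 days before readout.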
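Throughout, for viability, T/C: 100% = DMSO vehicle control viability.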

With C=CC(=O)N1CCN(c2nc(OCC3CCCN3C)nc3c(F)c(-c4nc(N)cc(C)c4C(F)(F)F)c(Cl)cc23)C(C)C1 (centres undefined) + C#Cc1c(F)ccc2cc(O)cc(-c3ncc4c(N5CC6CCC(C5)N6)nc(OCC56CCCN5CC(F)C6)nc4c3F)c12 the IC50 (second compound 0.0316 µM) was less than 3.16 nM, the IC50 (second compound 0.1 µM) was less than 3.16 nM and the IC50 (second compound 0.316 µM) was less than 3.16 nM. For the same molecule, the IC50 (second compound 1 µM) was less than 3.16 nM, the IC50 (second compound 3.16 µM) was less than 3.16 nM and the IC50 (second compound 10 µM) was less than 3.16 nM. It also gave a viability, T/C [1] of 22.3%, a viability, T/C [2] of 20.1% and a viability, T/C [3] of 18.7%. The viability, T/C [4] was 21%, the viability, T/C [5] was 22.6% and the viability, T/C [6] was 21.2%. For the same molecule, the viability, T/C [7] was 22.9%, the viability, T/C [8] was 19.5% and the viability, T/C [9] was 21.8%. The viability, T/C [10] was 20.7%, the viability, T/C [11] was 19.8% and the viability, T/C [12] was 23.9%. It also gave a viability, T/C [13] of 22.1%, a viability, T/C [14] of 22.2% and a viability, T/C [15] of 21%. It also gave a viability, T/C [16] of 23.4%, a viability, T/C [17] of 20.7% and a viability, T/C [18] of 21.4%. The viability, T/C [19] was 21.3%, the viability, T/C [20] was 19.5% and the viability, T/C [21] was 22%. The viability, T/C [22] was 21.5%, the viability, T/C [23] was 22.2% and the viability, T/C [24] was 22.5%. The viability, T/C [25] was 22.8%, the viability, T/C [26] was 20.1% and the viability, T/C [27] was 22%. It also gave a viability, T/C [28] of 20.3%, a viability, T/C [29] of 22% and a viability, T/C [30] of 22.3%. It also gave a viability, T/C [31] of 21.9%, a viability, T/C [32] of 21.1% and a viability, T/C [33] of 17.5%. For the same molecule, the viability, T/C [34] was 17.8%, the viability, T/C [35] was 18.2% and the viability, T/C [36] was 14.7%.
For O=C(c1ccc(F)c(F)c1Nc1ccc(I)cc1F)N1CC(O)([C@@H]2CCCCN2)C1 + C#Cc1c(F)ccc2cc(O)cc(-c3ncc4c(N5CC6CCC(C5)N6)nc(OCC56CCCN5CC(F)C6)nc4c3F)c12, the IC50 (second compound 0.0316 µM) was 14.5 nM, the IC50 (second compound 0.1 µM) was 9.8 nM and the IC50 (second compound 0.316 µM) was less than 3.16 nM. For the same molecule, the IC50 (second compound 1 µM) was less than 3.16 nM, the IC50 (second compound 3.16 µM) was less than 3.16 nM and the IC50 (second compound 10 µM) was less than 3.16 nM. It also gave a viability, T/C [1] of 71%, a viability, T/C [2] of 55.9% and a viability, T/C [3] of 37.7%. For the same molecule, the viability, T/C [4] was 31.2%, the viability, T/C [5] was 29.6% and the viability, T/C [6] was 24.4%. It also gave a viability, T/C [7] of 70.6%, a viability, T/C [8] of 49.2% and a viability, T/C [9] of 37%. The viability, T/C [10] was 31%, the viability, T/C [11] was 28.3% and the viability, T/C [12] was 23.9%. The viability, T/C [13] was 47.9%, the viability, T/C [14] was 44.9% and the viability, T/C [15] was 31.9%. It also gave a viability, T/C [16] of 29%, a viability, T/C [17] of 30.5% and a viability, T/C [18] of 21.6%. It also gave a viability, T/C [19] of 33.8%, a viability, T/C [20] of 29.7% and a viability, T/C [21] of 31.9%. For the same molecule, the viability, T/C [22] was 29.1%, the viability, T/C [23] was 29.2% and the viability, T/C [24] was 20.8%. For the same molecule, the viability, T/C [25] was 24.5%, the viability, T/C [26] was 28.5% and the viability, T/C [27] was 27.4%. It also gave a viability, T/C [28] of 25.7%, a viability, T/C [29] of 21.9% and a viability, T/C [30] of 19.1%. The viability, T/C [31] was 22%, the viability, T/C [32] was 18.8% and the viability, T/C [33] was 17.7%. The viability, T/C [34] was 18.1%, the viability, T/C [35] was 15.5% and the viability, T/C [36] was 12.2%.
